In brackets after ≈: the same amount, converted by molar mass.
How the values were obtained:
Assay type in all cases: functional
Escherichia coli = experiment: Minimum inhibitory concentration against Escherichia coli (CECT405)
Proteus mirabilis = experiment: Minimum inhibitory concentration against Proteus mirabilis (CECT170)
Staphylococcus aureus = experiment: Minimum Inhibitory concentration against Staphylococcus aureus (CECT240)
Pseudomonas aeruginosa = experiment: Minimum inhibitory concentration against Pseudomonas aeruginosa (CECT108)

MIC90 (Escherichia coli)	MIC90 (Proteus mirabilis)	MIC90 (Staphylococcus aureus)	MIC90 (Pseudomonas aeruginosa)	Compound
130 µg/mL (≈ 346 µM)	130 µg/mL (≈ 346 µM)	130 µg/mL (≈ 346 µM)	130 µg/mL (≈ 346 µM)	CC(=O)Nc1cc(C)cc(/N=N/c2cc([N+](=O)[O-])cc([N+](=O)[O-])c2O)c1O
1450 µg/mL (≈ 3920 µM)	1450 µg/mL (≈ 3920 µM)	1450 µg/mL (≈ 3920 µM)	1450 µg/mL (≈ 3920 µM)	COc1cc2ccc(=O)oc2c(O[C@@H]2O[C@H](CO)[C@@H](O)[C@H](O)[C@H]2O)c1O [FRAXINE]
300 µg/mL (≈ 491 µM)	300 µg/mL (≈ 491 µM)	300 µg/mL (≈ 491 µM)	300 µg/mL (≈ 491 µM)	COc1ccc([C@@H]2CC(=O)c3c(O)cc(O[C@@H]4O[C@H](CO)[C@@H](O)[C@H](O)[C@H]4O[C@@H]4O[C@@H](C)[C@H](O)[C@@H](O)[C@H]4O)cc3O2)cc1O [NEOHESPERIDIN]
1380 µg/mL (≈ 4570 µM)	120 µg/mL (≈ 397 µM)	120 µg/mL (≈ 397 µM)	120 µg/mL (≈ 397 µM)	O=c1c(O)c(-c2ccc(O)cc2O)oc2cc(O)cc(O)c12 [MORIN]
1800 µg/mL (≈ 6380 µM)	1800 µg/mL (≈ 6380 µM)	160 µg/mL (≈ 567 µM)		O=C(O)c1cccnc1Nc1cccc(C(F)(F)F)c1 [NIFLUMIC ACID]
	700 µg/mL	80 µg/mL	200 µg/mL	SILYMARIN
		8 µg/mL (≈ 13.1 µM)	25 µg/mL (≈ 40.9 µM)	COc1ccc([C@@H]2CC(=O)c3c(O)cc(O[C@@H]4O[C@H](CO[C@@H]5O[C@@H](C)[C@H](O)[C@@H](O)[C@H]5O)[C@@H](O)[C@H](O)[C@H]4O)cc3O2)cc1O [HESPERIDIN]
10 µg/mL (≈ 30.9 µM)	100 µg/mL (≈ 309 µM)	100 µg/mL (≈ 309 µM)	100 µg/mL (≈ 309 µM)	O=C(N[C@H](CO)[C@H](O)c1ccc([N+](=O)[O-])cc1)C(Cl)Cl [CHLORAMPHENICOL]

— ChEMBL document CHEMBL1133303, “Molecular topology: a useful tool for the search of new antibacterials” (2000)
